{"source": "patent US12070443B2", "about": "“Methods of treating and preventing breast cancer with S-equol” (The Board of Regents of the University of Texas System, priority 2018, dated 2024)", "key": {"[1]": {"tested_on": "AT3 mammary tumor cell line", "assay": "AT3 mammary tumor challenge in mice, S-equol and/or anti-PD-1", "type": "in vivo", "conditions": "AT3 tumors", "method": "The following three murine mammary tumor lines were tested to determine the effects of a PD-1 inhibitor, S-equol and a combination of the two therapies on tumor growth: (1) E0771 (B6 background), (2) AT-3 (B6 background), and (3) 4T1 (BalbC background). This experimental design includes four arms (using AT-3 as an example): (1) controls, (2) αPD-1, (3) S-equol, and (4) αPD-1+S-equol (FIG. 3) by injecting into mice 2×10^5 cells subcutaneously into the 4th mammary gland fat pad."}, "[2]": {"tested_on": "MDA-MB-231 cell-derived xenograft tumor", "assay": "MDA-MB-231 xenograft in athymic nude mice", "type": "in vivo", "method": "Further work in a preclinical animal model supports the notion of using S-equol to treat TNBC breast cancer. In immunocompromised mouse xenograft experiments, which used MDA-MB-231, a human TNBC breast cancer cell line, growth of tumors was suppressed by 60% with S-equol treatment compared to control. 5×10^6 MDA-MB-231 cells were injected orthotopically into mammary gland fat pads of 6 week-old female athymic nude mice (Harlan). When the tumor masses reached 50 to 80 mm^3 (about one week after the inoculation), the mice were given daily subcutaneous injections of S-equol (20 or 60 mg/kg per day) or PBS as a vehicle control. Tumor development was followed by caliper measurements along two orthogonal axes: length (L) and width (W) and volume (V) was estimated by the formula V=[L×(W^2)]/2. Xenograft tumors harvested from mice were fixed in 10% neutral-buffered formalin, dehydrated, embedded in paraffin, and sectioned at 3 μm thickness. Representative tumor sections from vehicle control and S-equol-treated mice were tested for Ki-67 expression to assess cell proliferation, and for ERβ pY36. Statistical significance in the experiments was assessed by two-tailed Student's t test. In all assays, p<0.05 was considered statistically significant. See, Yuan et al. 2016 listed below, which is incorporated by reference herein for all purposes."}, "TNBC [3]": {"tested_on": "TNBC", "assay": "Pilot biomarker clinical study of Ki67 in TNBC subjects", "type": "in vivo, human", "method": "A pilot biomarker clinical study was performed in 20 subjects with documented TNBC to determine the effect of the ERβ agonist S-equol on Ki67 an indicator of tumor cell proliferation. Tumor cell proliferation was measured by immunohistological staining for Ki-67. See, FIG. 13 for the outline of the protocol. Ki-67 is encoded by the gene MKI67 gene and is required to maintain individual mitotic chromosomes dispersed in the cytoplasm following nuclear envelope disassembly. Measuring the fraction of Ki-67-positive cells in a tumor is known to be a reliable parameter for assessing cancer patient prognosis. Subjects with TNBC are known to have very high levels of Ki67.\nPatients enrolled in the study received a history, physical, laboratory assessment, radiological imaging, and diagnostic biopsies. Immunohistochemistry (IHC) of Ki67 (proliferation marker), total ERβ, and pY36-ERβ (phosphorylated ERβ), B7H1 (also known as PDL-1) and BRCA1 (breast cancer 1, early onset) were conducted using core needle biopsy tissue samples prior to treatment. Patients were given oral S-equol 50 mg, twice daily for approximately two weeks (10-21 days) prior to the scheduled oncologic surgeries or start of primary systemic therapy. Tumor samples were obtained from the surgery or the two-week repeat core needle biopsy. Post-treatment IHC evaluation of Ki67, total ERβ, phosphorylated ERβ (pY36) and BRCA1 were obtained. Ki67 reduction is a validated surrogate marker of both short and long term hormonal therapy efficacy in trials of human breast cancer and was compared pre- and post-treatment with S-equol. […] A c-DNA microarray platform was also used to discover downstream transcriptional targets of ERβ resulting from activation by S-equol.\nWomen eligible for the study had newly diagnosed, previously untreated, triple negative breast cancer, with an intact primary breast tumor of any size. All stages of the disease were eligible. They took S-equol during the time they underwent standard preoperative evaluation or pre-therapeutic work-up for advanced disease, such as staging procedures or central line placement. If primary surgery was performed, tissue leftover after standard diagnostic evaluation was used for the two-week biomarker assessment. […] See, FIG. 9.\nA standard procedure for acquiring core biopsy with a Bard 14-gauge needle was utilized for determining TNBC prior to enrollment. Whenever possible, the tumor tissues used for IHC analyses were acquired at the same time as the diagnostic core biopsy. The tissue samples were sent for staining of total and pY36 ERβ and Ki67, and analyzed. Testing for ERα, PR, and HER-2 was performed using validated methods. TNBC tumors were defined as less than 5% nuclear staining of carcinoma cells for ERα and PR and either 0, 1, or 2+ staining for HER-2 by IHC. Whole-Genome DASL HT platform from Illumina, which is designed for gene expression profiling with extremely low input of RNA (50 pg), was used to interrogate paired FFPE tissue obtained before and after exposure to S-equol.\nThe primary analysis estimated the geometric mean change of the Ki67 expression from baseline to two weeks. This was performed using a one-sample t-test of the pre/post differences in the log-transformed data, and summarized by the 95% confidence interval. […]"}, "ERβ pY36": {"target": "T1, ERβ pY36 (Homo sapiens, UniProt Q92731)", "T1 construct": "MDA-MB-231, a human TNBC breast cancer cell line; endogenous in cells; host or cells: MDA-MB-231 (human TNBC line; also as xenograft tumours in athymic nude mice)", "T1 sequence (Q92731 whole entry)": "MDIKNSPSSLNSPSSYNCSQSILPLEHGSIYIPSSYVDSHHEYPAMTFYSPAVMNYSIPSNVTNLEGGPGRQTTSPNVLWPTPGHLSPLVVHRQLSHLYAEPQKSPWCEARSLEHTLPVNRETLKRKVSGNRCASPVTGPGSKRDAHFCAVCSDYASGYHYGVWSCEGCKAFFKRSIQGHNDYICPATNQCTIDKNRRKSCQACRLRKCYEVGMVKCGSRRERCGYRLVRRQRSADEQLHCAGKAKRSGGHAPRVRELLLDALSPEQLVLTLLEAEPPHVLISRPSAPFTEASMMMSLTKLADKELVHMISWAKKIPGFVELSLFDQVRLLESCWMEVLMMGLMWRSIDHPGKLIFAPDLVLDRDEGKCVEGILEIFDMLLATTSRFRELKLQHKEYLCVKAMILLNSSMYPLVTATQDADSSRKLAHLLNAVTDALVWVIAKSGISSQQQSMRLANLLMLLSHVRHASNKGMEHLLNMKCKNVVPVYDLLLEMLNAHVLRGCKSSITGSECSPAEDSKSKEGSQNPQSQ", "assay": "pY36-specific phosphorylation signal in MDA-MB-231 cells", "type": "cell-based", "conditions": "MDA-MB-231 cells (FIG. 18A)"}, "Ki67 expression": {"tested_on": "Ki67 expression", "conditions": "after two weeks, IMPACT trial; cited from earlier work"}, "TNBC [4]": {"tested_on": "TNBC", "conditions": "cited from earlier work"}, "[5]": {"conditions": "of 17 evaluable patients, S-equol 50 mg twice daily"}}, "note": "Entries after “also recorded” stand apart in the source; their conditions may differ. Where two headings read alike, the source gives them in different places.", "data": [{"compound": "Oc1ccc([C@H]2COc3cc(O)ccc3C2)cc1", "note": "[S-equol]", "values": [{"measurement": "tumor size", "setting": "[1]; excised tumors (FIG. 4C)", "value": "reduce tumor size compared to control"}, {"measurement": "tumor weight", "setting": "[1]; anti-PD-1 200 μg every 3 days, S-equol 50 mg/kg per day (FIG. 4B)", "value": "reduce tumor weight compared to control"}, {"measurement": "tumor volume", "setting": "[1]; anti-PD-1 200 μg every 3 days, S-equol 50 mg/kg per day, over 35 days post-challenge (FIG. 4A)", "value": "reduce tumor volume compared to control"}, {"measurement": "growth of tumors suppressed compared to control", "setting": "[2]; daily subcutaneous S-equol 20 or 60 mg/kg per day", "value": 60, "unit": "%"}, {"measurement": "xenograft tumor growth", "setting": "[2]; in words (FIGS. 8, 15, 18B)", "value": "inhibits tumor growth in vivo; also recorded: reduces the growth of TNBC cells; also recorded: inhibited"}, {"measurement": "patients with 0-20% reduction in Ki-67", "setting": "TNBC [3]; [5]", "value": 7, "unit": "patients"}, {"measurement": "patients with greater than 20% reduction in Ki-67", "setting": "TNBC [3]; [5]", "value": "one"}, {"measurement": "patients with greater than 30% reduction in Ki-67", "setting": "TNBC [3]; [5]", "value": 4, "unit": "patients"}, {"measurement": "patients with no reduction in Ki-67", "setting": "TNBC [3]; [5]", "value": 5, "unit": "patients"}, {"measurement": "Ki67 change pre- vs post-treatment", "setting": "TNBC [3]; oral S-equol 50 mg twice daily, 10-21 days, TNBC patients", "value": "measurable decrease in Ki67; also recorded: measurable decline in Ki67"}, {"measurement": "pY36-specific phosphorylation signal", "setting": "ERβ pY36", "value": "enhanced"}]}, {"compound": "CC(C)(C#N)c1cc(Cn2cncn2)cc(C(C)(C)C#N)c1", "note": "[anastrazole]", "values": [{"measurement": "change in the geometric mean of Ki67 expression", "setting": "Ki67 expression", "value": "−76", "unit": "%"}]}, {"compound": "CC/C(=C(\\c1ccccc1)c1ccc(OCCN(C)C)cc1)c1ccccc1", "note": "[tamoxifen]", "values": [{"measurement": "change in the geometric mean of Ki67 expression", "setting": "Ki67 expression", "value": "−59.5", "unit": "%"}]}, {"compound": "atezolizumab: an αPD-L1 antibody", "values": [{"measurement": "response rate", "setting": "TNBC [4]; 21 evaluable PD-L1 expressing TNBC tumors", "value": 19, "unit": "%"}]}, {"compound": "avelumab: another αPD-L1 antibody", "values": [{"measurement": "response rate", "setting": "TNBC [4]; 168 TNBC tumors unselected for PD-L1 expression", "value": 8.6, "unit": "%"}]}, {"compound": "pembrolizumab: an αPD-1 antibody", "values": [{"measurement": "response rate", "setting": "TNBC [4]; Phase 1, 27 women, pretreated chemotherapy resistant metastatic TNBC expressing PD-L1", "value": 18.4, "unit": "%"}]}]}
